Measurements taken from patent US9822147B2, “Methods of treating ophthalmic diseases using NPR-B agonists” (priority 2009, dated 2017).
Numbered stars: 1 amine (or outer) side, 2 acyl side, 3 side chain; on linkers, the order of the positions; unused ones are H or OH. Square brackets hold non-standard residues; d marks the D form. Peptide text beside a SMILES is read from it. * marks the point of attachment. Pro(4R-NH2) = N[C@H]1CN[C@H](C(=O)O)C1; dOrn(Me2) = CN(C)CCC[C@@H](N)C(=O)O; X2 = O=C([C@H]1CCCN([*:1])C1)[*:2]; dDap(Me2) = CN(C)C[C@@H](N)C(=O)O; Hyp = O=C(O)[C@@H]1C[C@@H](O)CN1; NHcycloheptyl = C1CCCC(N*)CC1; NMeL = CN[C@@H](CC(C)C)C(=O)O; Octanoyl = CCCCCCCC(=O)*; Api = NC1(C(=O)O)CCNCC1

Columns and labels:
NPR-B = target: T1, NPR-B (Homo sapiens, UniProt P20594); assay: NPR-B induced production of cyclic GMP in human glaucoma trabecular meshwork cells (GTM-3); assay type: cell-based; settings: group by EC50 and Emax (CNP = 100%); Table 4; read-out: Activity (group), NPR-B activation assayed with GTM-3 cells
T1 construct: a functional assay using endogenously NPR-B expressing GTM-3 cells; endogenous in cells; host or cells: GTM-3 (human glaucoma trabecular meshwork cells)
T1 sequence (P20594 23-1047): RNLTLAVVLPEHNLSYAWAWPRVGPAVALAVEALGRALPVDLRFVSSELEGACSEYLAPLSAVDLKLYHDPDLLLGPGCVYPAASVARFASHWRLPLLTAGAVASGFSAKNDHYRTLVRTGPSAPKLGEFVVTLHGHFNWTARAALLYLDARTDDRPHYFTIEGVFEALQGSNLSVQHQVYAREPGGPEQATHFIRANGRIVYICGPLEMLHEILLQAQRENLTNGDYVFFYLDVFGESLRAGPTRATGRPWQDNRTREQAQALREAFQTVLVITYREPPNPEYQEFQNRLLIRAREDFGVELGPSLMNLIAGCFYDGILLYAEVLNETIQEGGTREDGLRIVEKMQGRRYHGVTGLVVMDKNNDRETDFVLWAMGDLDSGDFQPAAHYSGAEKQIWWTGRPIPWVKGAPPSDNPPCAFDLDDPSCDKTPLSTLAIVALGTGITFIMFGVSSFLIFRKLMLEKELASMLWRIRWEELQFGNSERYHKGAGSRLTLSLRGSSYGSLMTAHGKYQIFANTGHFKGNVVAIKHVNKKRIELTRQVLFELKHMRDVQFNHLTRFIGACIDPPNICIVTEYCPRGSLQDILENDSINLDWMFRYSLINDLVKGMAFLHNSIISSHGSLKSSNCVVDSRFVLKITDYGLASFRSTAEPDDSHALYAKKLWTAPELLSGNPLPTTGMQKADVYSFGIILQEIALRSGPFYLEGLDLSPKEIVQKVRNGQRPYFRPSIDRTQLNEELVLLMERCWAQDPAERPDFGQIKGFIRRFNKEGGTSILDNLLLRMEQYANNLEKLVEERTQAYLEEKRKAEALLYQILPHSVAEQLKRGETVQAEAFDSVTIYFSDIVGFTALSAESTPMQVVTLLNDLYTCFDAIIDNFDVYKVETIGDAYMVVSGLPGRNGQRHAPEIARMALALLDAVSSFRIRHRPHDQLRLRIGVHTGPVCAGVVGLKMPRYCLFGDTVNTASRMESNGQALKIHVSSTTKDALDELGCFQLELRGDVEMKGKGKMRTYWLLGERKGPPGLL

rabbit eyes = assay: Efficacy in the rabbit: intraocular pressure (IOP) after a single topical ocular drop; assay type: in vivo; settings: dose 300 ug topical ocular, single 30 μL drop, up to 4 hr post dose, 1% as suspension (+) or solution (++) per mark on label
Experimental: A single 30 μL drop of a test item formulation was administered to rabbit eyes (n=8 to 10).
Intraocular pressure (IOP) was assessed in each eye at 0 hr, just prior to dosing, and again hourly for up to 4 hr post dose. The efficacy of a given formulation was determined based on the difference between the pretreatment TOP readings at 0 hr and the post treatment readings. A maximum percent reduction in IOP greater than 15% was noted by the “+” symbol. A maximum IOP reduction of less than 15% was assigned the “−” symbol.

Row | SMILES | EC50 (NPR-B) [µM] | RIOP, maximum percent reduction in IOP (rabbit eyes)
1 | CCCCCCCC(=O)N[C@H](C)C(=O)N[C@@H](Cc1ccccc1)C(=O)N[C@H](CCCNC(=N)N)C(=O)N[C@@H](CC(C)C)C(=O)N1C[C@H](O)C[C@H]1C(=O)N[C@@H](CC(C)C)C(=O)N[C@@H](CC(=O)O)C(=O)N[C@@H](CCCNC(=N)N)C(=O)N[C@H](C(N)=O)[C@@H](C)CC [JAL-1047, Occ-ala-Phe-arg-Leu-Hyp-Leu-Asp-Arg-Ile-NH2] (HELM PEPTIDE1{[CCCCCCCC(=O)[*:2]].[dA].F.[dR].L.[Hyp].L.D.R.I.[am]}$$$$V2.0) | < 1 | + (+ IOP reduction >15%)
2 | CCCCCCCC(=O)N[C@H](C)C(=O)N[C@@H](Cc1ccccc1)C(=O)N[C@H](CCCCN)C(=O)N[C@@H](CC(C)C)C(=O)N1C[C@H](O)C[C@H]1C(=O)N(C)[C@@H](CC(C)C)C(=O)N[C@@H](CC(=O)O)C(=O)N[C@@H](CCCNC(=N)N)C(=O)N[C@H](C(N)=O)[C@@H](C)CC [JAL-1060, Occ-ala-Phe-lys-Leu-Hyp-Nml-Asp-Arg-Ile-NH2] (HELM PEPTIDE1{[CCCCCCCC(=O)[*:2]].[dA].F.[dK].L.[Hyp].[meL].D.R.I.[am]}$$$$V2.0) | < 1 | + (+ IOP reduction >15%)
3 | CCCCCCCC(=O)N[C@H](C)C(=O)N[C@@H](Cc1ccccc1)C(=O)N[C@H](CC(C)C)C(=O)N[C@@H](CC(C)C)C(=O)N1C[C@H](O)C[C@H]1C(=O)N(C)[C@@H](CC(C)C)C(=O)N[C@@H](CC(=O)O)C(=O)N[C@@H](CCCNC(=N)N)C(=O)N[C@H](C(N)=O)[C@@H](C)CC [JAL-1042, Occ-ala-Phe-leu-Leu-Hyp-Nml-Asp-Arg-Ile-NH2] (HELM PEPTIDE1{[CCCCCCCC(=O)[*:2]].[dA].F.[dL].L.[Hyp].[meL].D.R.I.[am]}$$$$V2.0) | < 1 | − (− IOP reduction <15%)
4 | CCCCCCCC(=O)N[C@H](C)C(=O)N[C@@H](Cc1ccccc1)C(=O)N[C@H](CCCNC(=N)N)C(=O)N[C@@H](CC(C)C)C(=O)N1C[C@H](O)C[C@H]1C(=O)N(C)[C@@H](CC(C)C)C(=O)N[C@@H](CC(=O)O)C(=O)N[C@@H](CCCNC(=N)N)C(=O)N[C@H](C(N)=O)[C@@H](C)CC [JAL-1086, Occ-ala-Phe-arg-Leu-Hyp-Nml-Asp-Arg-Ile-NH2] (HELM PEPTIDE1{[CCCCCCCC(=O)[*:2]].[dA].F.[dR].L.[Hyp].[meL].D.R.I.[am]}$$$$V2.0) | < 1 | + (+ IOP reduction >15%)
5 | CCCCCCCC(=O)N1CCC[C@H](C(=O)N[C@@H](Cc2ccccc2)C(=O)N[C@H](CC(C)C)C(=O)N[C@@H](CC(C)C)C(=O)N2C[C@H](O)C[C@H]2C(=O)N(C)[C@@H](CC(C)C)C(=O)N[C@@H](CC(=O)O)C(=O)N[C@@H](CCCNC(=N)N)C(=O)N[C@H](C(N)=O)[C@@H](C)CC)C1 [JAL-1041, Occ-Sni-Phe-leu-Leu-Hyp-Nml-Asp-Arg-Ile-NH2] (HELM PEPTIDE1{[CCCCCCCC(=O)[*:2]].[O=C([C@H]1CCCN([*:1])C1)[*:2]].F.[dL].L.[Hyp].[meL].D.R.I.[am]}$$$$V2.0) | < 1 | + (+ IOP reduction >15%)
6 | CCCCCCCC(=O)N1CCC[C@H](C(=O)N[C@@H](Cc2ccccc2)C(=O)NC2(C(=O)N[C@@H](CC(C)C)C(=O)N3C[C@H](O)C[C@H]3C(=O)N(C)[C@@H](CC(C)C)C(=O)N[C@@H](CC(=O)O)C(=O)N[C@@H](CCCNC(=N)N)C(=O)N[C@H](C(N)=O)[C@@H](C)CC)CCNCC2)C1 [JAL-1555, Occ-Sni-Phe-Apc-Leu-Hyp-Nml-Asp-Arg-Ile-NH2] (Octanoyl-[X2]F[Api]L[Hyp][NMeL]DRI-NH2) | < 1 | + (+ IOP reduction >15%)
7 | CCCCCCCC(=O)N1CCC[C@H](C(=O)N[C@@H](Cc2ccccc2)C(=O)N[C@H](CCCN(C)C)C(=O)N[C@@H](CC(C)C)C(=O)N2C[C@H](O)C[C@H]2C(=O)N(C)[C@@H](CC(C)C)C(=O)N[C@@H](CC(=O)O)C(=O)N[C@@H](CCCNC(=N)N)C(=O)N[C@H](C(N)=O)[C@@H](C)CC)C1 [JAL-1289, Occ-Sni-Phe-orn(Me2)-Leu-Hyp-Nml-Asp-Arg-Ile-NH2] (Octanoyl-[X2]F[dOrn(Me2)]L[Hyp][NMeL]DRI-NH2) | < 1 | + (+ IOP reduction >15%)
8 | CCCCCCCC(=O)N1CCC[C@H](C(=O)N[C@@H](Cc2ccccc2)C(=O)N[C@H](CC(C)C)C(=O)N[C@@H](CC(C)C)C(=O)N2C[C@H](N)C[C@H]2C(=O)N(C)[C@@H](CC(C)C)C(=O)N[C@@H](CC(=O)O)C(=O)N[C@@H](CCCNC(=N)N)C(=O)N[C@H](C(N)=O)[C@@H](C)CC)C1 [JAL-1295, Occ-Sni-Phe-leu-Leu-Tap-Nml-Asp-Arg-Ile-NH2] (Octanoyl-[X2]F[dL]L[Pro(4R-NH2)][NMeL]DRI-NH2) | < 1 | + (+ IOP reduction >15%)
9 | CCCCCCCC(=O)N1CCC[C@H](C(=O)N[C@@H](Cc2ccccc2)C(=O)N[C@H](CC(C)C)C(=O)N[C@@H](CC(C)C)C(=O)N2C[C@H](N)C[C@H]2C(=O)N(C)[C@@H](CC(C)C)C(=O)N[C@H](C(=O)N2CCC[C@H]2C(=O)NC2CCCCCC2)C(C)C)C1 [JAL-1654, Occ-Sni-Phe-leu-Leu-Tap-Nml-Val-Pro-Che] (Octanoyl-[X2]F[dL]L[Pro(4R-NH2)][NMeL]VP-NHcycloheptyl) | < 1 | − (− IOP reduction <15%)
10 | CCCCCCCC(=O)N1CCC[C@H](C(=O)N[C@@H](Cc2ccccc2)C(=O)N[C@H](CC(C)C)C(=O)N[C@@H](CC(C)C)C(=O)N2C[C@H](O)C[C@H]2C(=O)N(C)[C@@H](CC(C)C)C(=O)N[C@@H](CC(=O)O)C(=O)N2CCC[C@H]2C(=O)NC2CCCCCC2)C1 [JAL-1512_02, Occ-Sni-Phe-leu-Leu-Hyp-Nml-Asp-Pro-Che] (Octanoyl-[X2]F[dL]L[Hyp][NMeL]DP-NHcycloheptyl) | < 1 | + (+ IOP reduction >15%)
11 | CCCCCCCC(=O)N1CCC[C@H](C(=O)N[C@@H](Cc2ccccc2)C(=O)N[C@H](CC(C)C)C(=O)N[C@@H](CC(C)C)C(=O)N2C[C@H](N)C[C@H]2C(=O)N(C)[C@@H](CC(C)C)C(=O)N[C@H](C(=O)N[C@@H](CCCNC(=N)N)C(=O)NC2CCCCCC2)C(C)C)C1 [JAL-1729, Occ-Sni-Phe-leu-Leu-Tap-Nml-Val-Arg-Che] (Octanoyl-[X2]F[dL]L[Pro(4R-NH2)][NMeL]VR-NHcycloheptyl) | < 1 | + (+ IOP reduction >15%)
12 | CCCCCCCC(=O)N1CCC[C@H](C(=O)N[C@@H](Cc2ccccc2)C(=O)N[C@H](CN(C)C)C(=O)N[C@@H](CC(C)C)C(=O)N2C[C@H](N)C[C@H]2C(=O)N(C)[C@@H](CC(C)C)C(=O)N[C@@H](CC(=O)O)C(=O)N[C@@H](CCCNC(=N)N)C(=O)N[C@H](C(N)=O)[C@@H](C)CC)C1 [JAL-1325, Occ-Sni-Phe-dap(Me2)-Leu-Tap-Nml-Asp-Arg-Ile-NH2] (Octanoyl-[X2]F[dDap(Me2)]L[Pro(4R-NH2)][NMeL]DRI-NH2) | < 1 | + (+ IOP reduction >15%)
13 | CCCCCCCC(=O)N1CCC[C@H](C(=O)N[C@@H](Cc2ccccc2)C(=O)N[C@H](CC(C)C)C(=O)N[C@@H](CC(C)C)C(=O)N2C[C@H](O)C[C@H]2C(=O)N(C)[C@@H](CC(C)C)C(=O)N[C@H](C(=O)N[C@@H](CCCNC(=N)N)C(=O)NC2CCCCCC2)C(C)C)C1 [JAL-1730, Occ-Sni-Phe-leu-Leu-Hyp-Nml-Val-Arg-Che] (Octanoyl-[X2]F[dL]L[Hyp][NMeL]VR-NHcycloheptyl) | < 1 | + (+ IOP reduction >15%)
14 | CCCCCCCC(=O)N1CCC[C@H](C(=O)N[C@@H](Cc2ccccc2)C(=O)N[C@H](CN(C)C)C(=O)N[C@@H](CC(C)C)C(=O)N2C[C@H](O)C[C@H]2C(=O)N(C)[C@@H](CC(C)C)C(=O)N[C@@H](CC(=O)O)C(=O)N[C@@H](CCCNC(=N)N)C(=O)N[C@H](C(N)=O)[C@@H](C)CC)C1 [JAL-1287, Occ-Sni-Phe-dap(Me2)-Leu-Hyp-Nml-Asp-Arg-Ile-NH2] (Octanoyl-[X2]F[dDap(Me2)]L[Hyp][NMeL]DRI-NH2) | < 1 | + (+ IOP reduction >15%)
